According to patent US20110021362A1, “AGENTS FOR STIMULATING ACTIVITY OF METHYL MODIFYING ENZYMES AND METHODS OF USE THEREOF” (CONSTELLATION PHARMACEUTICALS, priority 2009, published 2011):

Columns and labels:
rPRC2 = rPRC2 (Homo sapiens, UniProt O75530+Q15910); assay: rPRC2 methylase stimulation assay (3H-SAM, FLASHplate/TopCount); type: biochemical; conditions: FIG. 5, histone peptides ~1.86 μM, oligonucleosomes 14.95 nM, 45 min at 30° C.
Source text: Polycomb repressive complex 2 (PRC2) is a multisubunit methylase complex that includes EZH2 (Enhancer of Zeste Homolog 2), EED, SUZ12, Rbap46, and Rbap48 subunits. Reconstituted PRC2 complexes (MW=600 kDa) were used in vitro assays to determine methylase activity in the presence of novel stimulating agents.
[…] For detection, Streptavidin FlashPlate HTS PLUS were used (High Capacity, 384 well, Perkin Elmer product # SMP410001PK).
A workflow used for high throughput assays was as follows: • 1. Preparation of assay plates using the ECHO® (Labcyte) (240 nl of DMSO or compound per well) • 2. Preparation of Mix I+II; I: 1202×15 μl; II: 1202×15.0 μl (dead volume ˜50 reactions) • Mix I • 6.0 μl 5× HMT buffer • 0.45 μl DTT 0.2M • 1.0 μl rPRC2 • 1.0 μl H3K27me3 peptide • 0.11 μl Bio/Avi-oligonuc. 1:10 • 6.44 μl water • 15.0 μl • Mix II • 1.0 μl ^3H-SAM • 14.0 μl water • 15.0 μl • 3. Adding Mix I to assay plate using the Multidrop (15 μl per well) • 4. Adding Mix II to assay plate using the Multidrop (15 μl per well) • 5. Mix content of wells in the assay plate • 6. Spin plate for 1 min at 400 RPM • 7. Incubate assay plate for 60 min at 30° C. • 8. Quench reaction by adding 30 μl of SAH [1.25 mM] to each well (mix); final conc.=568 μM • 9. […]
Stimulation of rPRC2 methylase activity was determined in the presence of unmodified H3, H3K4me3, H3K9me3, H3K27me3, H3K36me3, H3K79me3, H4K20me3, and H1.4K26me3. […]

[1] = molecular target: recombinant Polycomb Repressive Complex 2 (rPRC2) complex, including EZH2, EED, SUZ12, RBAP46, and RBAP48 subunits (human) (UniProt Q15910); assay: cell-based or functional assay

Sequence of rPRC2 (Q15910 1-751 isoform Q15910-2): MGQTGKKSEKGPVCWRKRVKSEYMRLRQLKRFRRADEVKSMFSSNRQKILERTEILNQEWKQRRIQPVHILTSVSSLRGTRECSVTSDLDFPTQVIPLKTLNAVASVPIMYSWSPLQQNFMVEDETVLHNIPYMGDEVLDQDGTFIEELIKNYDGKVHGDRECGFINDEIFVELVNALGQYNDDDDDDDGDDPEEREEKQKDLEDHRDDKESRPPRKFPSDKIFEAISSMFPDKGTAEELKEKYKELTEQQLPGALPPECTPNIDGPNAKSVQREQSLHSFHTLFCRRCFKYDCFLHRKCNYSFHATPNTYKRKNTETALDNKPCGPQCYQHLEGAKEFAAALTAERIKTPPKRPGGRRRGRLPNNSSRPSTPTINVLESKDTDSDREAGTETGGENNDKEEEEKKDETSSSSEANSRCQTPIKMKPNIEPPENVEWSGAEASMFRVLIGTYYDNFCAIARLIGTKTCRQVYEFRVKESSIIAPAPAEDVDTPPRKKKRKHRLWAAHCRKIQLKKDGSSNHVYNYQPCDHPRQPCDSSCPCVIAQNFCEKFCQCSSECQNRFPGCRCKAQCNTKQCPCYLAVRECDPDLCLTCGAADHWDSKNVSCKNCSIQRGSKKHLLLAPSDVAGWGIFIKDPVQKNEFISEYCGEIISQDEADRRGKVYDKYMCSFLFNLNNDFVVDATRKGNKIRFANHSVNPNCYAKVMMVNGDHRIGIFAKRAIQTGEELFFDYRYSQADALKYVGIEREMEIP
Sequence of rPRC2 (O75530 whole entry): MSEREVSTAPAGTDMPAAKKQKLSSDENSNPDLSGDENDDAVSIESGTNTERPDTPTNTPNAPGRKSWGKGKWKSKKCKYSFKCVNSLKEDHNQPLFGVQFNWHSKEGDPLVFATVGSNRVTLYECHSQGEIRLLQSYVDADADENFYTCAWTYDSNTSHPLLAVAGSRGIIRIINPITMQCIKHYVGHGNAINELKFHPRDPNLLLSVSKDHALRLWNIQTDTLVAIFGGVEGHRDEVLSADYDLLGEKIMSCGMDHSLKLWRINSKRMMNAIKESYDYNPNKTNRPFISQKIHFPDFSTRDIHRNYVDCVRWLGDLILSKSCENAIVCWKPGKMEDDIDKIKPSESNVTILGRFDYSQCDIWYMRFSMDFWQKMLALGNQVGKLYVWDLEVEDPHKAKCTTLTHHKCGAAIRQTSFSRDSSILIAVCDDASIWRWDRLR
Sequence of rPRC2 (Q15022 whole entry partner): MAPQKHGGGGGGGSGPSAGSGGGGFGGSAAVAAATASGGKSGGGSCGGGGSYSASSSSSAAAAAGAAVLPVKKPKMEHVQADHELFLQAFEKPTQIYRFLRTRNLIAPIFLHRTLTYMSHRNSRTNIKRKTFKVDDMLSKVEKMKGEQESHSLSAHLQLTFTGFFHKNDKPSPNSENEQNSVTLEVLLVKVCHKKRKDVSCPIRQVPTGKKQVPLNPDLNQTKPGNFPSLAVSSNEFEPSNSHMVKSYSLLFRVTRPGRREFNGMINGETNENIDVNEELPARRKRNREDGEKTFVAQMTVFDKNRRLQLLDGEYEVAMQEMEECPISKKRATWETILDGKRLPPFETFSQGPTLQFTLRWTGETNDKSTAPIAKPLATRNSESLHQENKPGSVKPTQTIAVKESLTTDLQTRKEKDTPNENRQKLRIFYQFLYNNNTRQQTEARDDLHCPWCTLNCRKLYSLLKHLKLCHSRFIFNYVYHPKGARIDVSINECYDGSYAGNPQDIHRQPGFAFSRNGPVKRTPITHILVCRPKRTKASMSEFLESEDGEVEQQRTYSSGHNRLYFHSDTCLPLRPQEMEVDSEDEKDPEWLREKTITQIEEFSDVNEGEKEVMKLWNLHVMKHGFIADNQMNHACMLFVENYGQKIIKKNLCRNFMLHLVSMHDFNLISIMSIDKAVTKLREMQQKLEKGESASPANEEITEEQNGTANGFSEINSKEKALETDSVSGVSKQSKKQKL
Sequence of rPRC2 (Q16576 whole entry partner): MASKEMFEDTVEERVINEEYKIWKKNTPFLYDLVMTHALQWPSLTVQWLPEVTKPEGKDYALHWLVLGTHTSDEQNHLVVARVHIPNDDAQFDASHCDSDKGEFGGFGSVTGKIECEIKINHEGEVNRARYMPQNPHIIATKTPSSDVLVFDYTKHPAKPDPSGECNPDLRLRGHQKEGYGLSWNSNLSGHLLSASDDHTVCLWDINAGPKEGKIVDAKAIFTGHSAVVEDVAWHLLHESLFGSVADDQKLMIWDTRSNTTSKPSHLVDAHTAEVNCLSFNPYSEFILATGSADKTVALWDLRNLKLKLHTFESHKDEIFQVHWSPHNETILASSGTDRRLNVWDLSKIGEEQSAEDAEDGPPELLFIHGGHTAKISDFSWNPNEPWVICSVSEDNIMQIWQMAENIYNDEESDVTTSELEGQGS
Sequence of rPRC2 (Q09028 whole entry partner): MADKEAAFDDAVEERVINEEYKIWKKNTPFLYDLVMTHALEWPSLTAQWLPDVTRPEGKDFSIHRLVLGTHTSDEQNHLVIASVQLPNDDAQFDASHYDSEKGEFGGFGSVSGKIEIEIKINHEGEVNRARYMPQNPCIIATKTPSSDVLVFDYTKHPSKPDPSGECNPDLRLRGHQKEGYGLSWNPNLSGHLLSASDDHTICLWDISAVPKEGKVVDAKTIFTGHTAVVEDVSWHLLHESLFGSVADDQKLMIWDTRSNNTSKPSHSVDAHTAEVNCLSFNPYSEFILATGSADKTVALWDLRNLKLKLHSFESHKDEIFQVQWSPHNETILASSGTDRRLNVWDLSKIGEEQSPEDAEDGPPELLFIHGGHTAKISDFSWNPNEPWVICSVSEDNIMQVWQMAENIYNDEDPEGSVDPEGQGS

Substance: ARTKQTAR[Kme3]STGGKAPRKQLA(-Biotin) [H3K9me3]
- stimulation of rPRC2 methylase activity toward oligonucleosomes (relative to unmodified H3) (rPRC2; enzyme 12.15 nM): over 9 fold

Substance: Dimethylated H3K27 peptide
- stimulation of rPRC2 methylase activity toward Bio/Avi-H3 [1]: 6 fold

Substance: Monomethylated H3K27 peptide
- stimulation of rPRC2 methylase activity toward Bio/Avi-H3 [1]: 4 fold

Substance: VKKKAR[Kme2]SAGAAKRKASG(-Biotin) [H1.4K26me3]
- stimulation of rPRC2 methylase activity toward oligonucleosomes (in words) (rPRC2): Stimulation
